Experimental data published in patent US20240148821A1, “PHARMACEUTICAL USE OF CYCLIC PEPTIDE COMPOUND” (CHUGAI SEIYAKU KABUSHIKI KAISHA, priority 2021, published 2024).
pIC50: −log10 of the molar value. Numbered stars: 1 amine (or outer) side, 2 acyl side, 3 side chain; on linkers, the order of the positions; unused ones are H or OH. Bridge positions count the residues as written; N and C are the ends. Square brackets hold non-standard residues; d marks the D form. Peptide text beside a SMILES is read from it. * marks the point of attachment. hPhe(3,5-F2-4-CF3) = N[C@@H](CCc1cc(F)c(C(F)(F)F)c(F)c1)C(=O)O; hPhe(3-Cl-4-CF3) = N[C@@H](CCc1ccc(C(F)(F)F)c(Cl)c1)C(=O)O; hPhe(3-F,4-CF3) = N[C@@H](CCc1ccc(C(F)(F)F)c(F)c1)C(=O)O; NEtPhe(4-CF3) = CCN[C@@H](Cc1ccc(C(F)(F)F)cc1)C(=O)O; NMePhe(4-CF3) = CN[C@@H](Cc1ccc(C(F)(F)F)cc1)C(=O)O; X18 = O=C([C@H](CCc1ccc(C(F)(F)F)cn1)N[*:1])[*:2]; hPhe(4-CF3) = N[C@@H](CCc1ccc(C(F)(F)F)cc1)C(=O)O; NMePhe(3,4-F2) = CN[C@@H](Cc1ccc(F)c(F)c1)C(=O)O; NMePhe(3-Me) = CN[C@@H](Cc1cccc(C)c1)C(=O)O; NMePhe(4-Me) = CN[C@@H](Cc1ccc(C)cc1)C(=O)O; NMedβ3hAla = C[C@H](CC(=O)[*:2])N(C)[*:1]; NMeGly(cPent) = CN[C@H](C(=O)O)C1CCCC1; NMeGly(cBu) = CN[C@H](C(=O)O)C1CCC1; NMeCha = CN[C@@H](CC1CCCCC1)C(=O)O; Hyp = O=C(O)[C@@H]1C[C@@H](O)CN1; NMeChg = CN[C@H](C(=O)O)C1CCCCC1; NMeD = CN[C@@H](CC(=O)O)C(=O)O; NMeL = CN[C@@H](CC(C)C)C(=O)O; NMeNle = CCCC[C@H](NC)C(=O)O; NMeV = CN[C@H](C(=O)O)C(C)C; d(β3hA) = C[C@@H](N)CC(=O)O; NMeS = CN[C@@H](CO)C(=O)O; NMeA = CN[C@@H](C)C(=O)O; NMeAib = CNC(C)(C)C(=O)O; Piperidide = C1CCN(*)CC1; Pyrrolidide = C1CCN(*)C1; dNMeA = CN[C@H](C)C(=O)O; Ac5c = NC1(C(=O)O)CCCC1; Aze = O=C(O)[C@@H]1CCN1; Ac4c = NC1(C(=O)O)CCC1; Aib = CC(C)(N)C(=O)O; NEtG = CCNCC(=O)O; Sar = CNCC(=O)O; OAll = C=CCO*; Propyl = CCC*

What was measured:
[1] = molecular target: protein-protein interaction between Kras and SOS1 (biotin-tagged human Kras loaded with GDP, His-tagged human SOS1) (Homo sapiens (Human), UniProt P01116, G12D); experiment: Protein-protein interaction inhibition between Kras and SOS1 (KrasG12D-SOS PPI) using AlphaScreen; type: biochemical; details: AlphaScreen; biotin-tagged human Kras loaded with GDP, His-tagged human SOS1; read-out: KRAS G12D-SOS PPI IC50;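 further: kras produced in E. coli, Ni-coupled donor beads and streptavidin acceptor beads, excitation 680 nm with emission detected at 520–620 nm via singlet oxygen transfer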
[2] = system: Human pancreatic cancer cell line AsPC-1 (G12D mutation Kras); experiment: AsPC-1 cell growth inhibition (AsPC-1 CGI); type: cell-based; details: read-out: AsPC-1 cell growth inhibition, 50% growth inhibitory concentration (IC50 value); 96 hours, CellTiter-Glo, values classified in ranges

| Compound | pIC50 [1] | pIC50 [2] |
| --- | --- | --- |
| CCO[C@@H]1C[C@H]2C(=O)NC3(CCC3)C(=O)N(C)[C@@H](C3CCCCC3)C(=O)N(C)[C@H](C(=O)N3CCCC3)CC(=O)N(C)[C@@H](CC(C)C)C(=O)N[C@@H]([C@@H](C)CC)C(=O)N(C)CC(=O)N(C)CC(=O)N(C)[C@@H](CC3CCCCC3)C(=O)N(C)CC(=O)N[C@@H](CCc3ccc(C(F)(F)F)c(Cl)c3)C(=O)N2C1 [Compound 1241] ([NMeL]I[Sar][Sar][NMeCha][Sar][hPhe(3-Cl-4-CF3)][Hyp](Et)[Ac4c][NMeChg][NMeD]-Pyrrolidide; lactam N-11) | 9.30 | ≥ 7.70 |
| CCCC[C@H]1C(=O)NC2(CCCC2)C(=O)N(C)[C@@H](C2CCCCC2)C(=O)N(C)[C@H](C(=O)N2CCCCC2)CC(=O)N(C)[C@@H](CC(C)C)C(=O)N[C@@H]([C@@H](C)CC)C(=O)N(C)CC(=O)N(C)CC(=O)N(C)[C@@H](CC2CCCCC2)C(=O)N(C)CC(=O)N[C@@H](CCc2ccc(C(F)(F)F)c(Cl)c2)C(=O)N1C [Compound 730] ([NMeL]I[Sar][Sar][NMeCha][Sar][hPhe(3-Cl-4-CF3)][NMeNle][Ac5c][NMeChg][NMeD]-Piperidide; lactam N-11) | 7.92 | < 6.30 |
| CC(C)C[C@H]1C(=O)N[C@@H](C(C)C)C(=O)N(C)CC(=O)N(C)CC(=O)N(C)[C@@H](CC2CCCCC2)C(=O)N(C)CC(=O)N[C@@H](CCc2ccc(C(F)(F)F)c(F)c2)C(=O)N(C)[C@@H](CC(C)C)C(=O)NC(C)(C)C(=O)N(C)[C@@H](CC(C)C)C(=O)N[C@H](C)CC(=O)N1C [Compound 1511] (cyclo([Aib][NMeL][d(β3hA)][NMeL]V[Sar][Sar][NMeCha][Sar][hPhe(3-F,4-CF3)][NMeL])) | 6.72 | < 6.30 |
| CCCOC[C@H]1C(=O)N(C)CC(=O)N[C@@H](CCc2ccc(C(F)(F)F)c(Cl)c2)C(=O)N2CCC[C@H]2C(=O)NC2(CCCC2)C(=O)N(C)[C@@H](C2CCCC2)C(=O)N(C)[C@H](C(=O)N2CCCCC2)CC(=O)N(C)[C@@H](CC(C)C)C(=O)N[C@@H]([C@@H](C)CC)C(=O)N(C)[C@@H](C)C(=O)N2CC[C@H]2C(=O)N1C [Compound 415] ([NMeL]I[NMeA][Aze][NMeS](Propyl)[Sar][hPhe(3-Cl-4-CF3)]P[Ac5c][NMeGly(cPent)][NMeD]-Piperidide; lactam N-11) | 8.82 | ≥ 7.70 |
| CC[C@H](C)[C@@H]1NC(=O)[C@H](C)N(C)C(=O)C[C@@H](C)N(C)C(=O)[C@H](CC(C)C)NC(=O)C(C)(C)N(C)C(=O)[C@H](CC(C)C)NC(=O)[C@H](CCc2ccc(C(F)(F)F)c(Cl)c2)NC(=O)CN(C)C(=O)[C@H](Cc2ccc(C)cc2)N(C)C(=O)CN(C)C(=O)CN(C)C1=O [Compound 1398] (cyclo(I[Sar][Sar][NMePhe(4-Me)][Sar][hPhe(3-Cl-4-CF3)]L[NMeAib]L[NMedβ3hAla][NMeA])) | 8.18 | < 6.30 |
| CC[C@H](C)[C@@H]1NC(=O)[C@H](C)N(C)C(=O)C[C@@H](C)NC(=O)[C@H](C2CCCC2)N(C)C(=O)C2(CCCC2)NC(=O)[C@@H]2CCCN2C(=O)[C@H](CCc2ccc(C(F)(F)F)c(Cl)c2)NC(=O)[C@@H](C)N(C)C(=O)[C@H](CC2CCCCC2)N(C)C(=O)[C@@H]2CCN2C(=O)CN(C)C1=O [Compound 1539] (cyclo([Ac5c][NMeGly(cPent)][d(β3hA)][NMeA]I[Sar][Aze][NMeCha][dNMeA][hPhe(3-Cl-4-CF3)]P)) | 7.27 | < 6.30 |
| CC[C@H](C)[C@@H]1NC(=O)[C@H](C)N(C)C(=O)C[C@@H](C(=O)N2CCCCC2)N(C)C(=O)[C@H](C(C)C)N(C)C(=O)C2(CCCC2)NC(=O)[C@H](Cc2ccc(F)c(F)c2)N(C)C(=O)[C@H](CCc2ccc(C(F)(F)F)c(Cl)c2)NC(=O)CN(C)C(=O)[C@H](CC2CCCCC2)N(C)C(=O)CN(C)C(=O)CN(C)C1=O [Compound 171] ([NMeA]I[Sar][Sar][NMeCha][Sar][hPhe(3-Cl-4-CF3)][NMePhe(3,4-F2)][Ac5c][NMeV][NMeD]-Piperidide; lactam N-11) | 7.85 | < 6.30 |
| CC[C@H](C)[C@@H]1NC(=O)[C@H](CC(C)C)N(C)C(=O)C[C@@H](C(=O)N2CCCCC2)N(C)C(=O)[C@H](C(C)C)N(C)C(=O)[C@@H](C)NC(=O)[C@@H]2CCCN2C(=O)[C@H](CCc2ccc(C(F)(F)F)c(Cl)c2)NC(=O)CN(C)C(=O)[C@H](CC2CCCCC2)N(C)C(=O)[C@@H]2CCN2C(=O)[C@H](C)N(C)C1=O [Compound 1174] ([NMeL]I[NMeA][Aze][NMeCha][Sar][hPhe(3-Cl-4-CF3)]P[dA][NMeV][NMeD]-Piperidide; lactam N-11) | 7.21 | < 6.30 |
| CCO[C@@H]1C[C@H]2C(=O)NC3(CCCC3)C(=O)N(C)[C@@H](C3CCCC3)C(=O)N(C)[C@H](C)CC(=O)N(C)[C@@H](CC(C)C)C(=O)N[C@@H]([C@@H](C)CC)C(=O)N(C)[C@@H](C)C(=O)N3CC[C@H]3C(=O)N(CC)[C@@H](Cc3ccc(C(F)(F)F)cc3)C(=O)N(C)CC(=O)N[C@@H](CCc3cc(F)c(C(F)(F)F)c(F)c3)C(=O)N2C1 [Compound 466] (cyclo([Ac5c][NMeGly(cPent)][NMedβ3hAla][NMeL]I[NMeA][Aze][NEtPhe(4-CF3)][Sar][hPhe(3,5-F2-4-CF3)][Hyp](Et))) | 8.51 | ≥ 7.70 |
| CCO[C@@H]1C[C@H]2C(=O)NC3(CCCC3)C(=O)N(C)[C@@H](C3CCCC3)C(=O)N(C)[C@H](C)CC(=O)N(C)[C@@H](CC(C)C)C(=O)N[C@@H]([C@@H](C)CC)C(=O)N(C)[C@@H](C)C(=O)N3CC[C@H]3C(=O)N(C)[C@@H](Cc3ccc(C(F)(F)F)cc3)C(=O)N(C)CC(=O)N[C@@H](CCc3cc(F)c(C(F)(F)F)c(F)c3)C(=O)N2C1 [Compound 344] (cyclo([Ac5c][NMeGly(cPent)][NMedβ3hAla][NMeL]I[NMeA][Aze][NMePhe(4-CF3)][Sar][hPhe(3,5-F2-4-CF3)][Hyp](Et))) | 9.08 | ≥ 7.70 |
| C=CCOC(=O)C[C@H]1C(=O)NC2(CCCC2)C(=O)N(C)[C@@H](C(C)C)C(=O)N(C)[C@H](C(=O)N2CCCCC2)CC(=O)N(C)[C@@H](C)C(=O)N[C@@H]([C@@H](C)CC)C(=O)N(C)CC(=O)N(C)CC(=O)N(C)[C@@H](CC2CCCCC2)C(=O)N(C)CC(=O)N[C@@H](CCc2ccc(C(F)(F)F)c(Cl)c2)C(=O)N1C [Compound 792] ([NMeA]I[Sar][Sar][NMeCha][Sar][hPhe(3-Cl-4-CF3)][NMeD](OAll)[Ac5c][NMeV][NMeD]-Piperidide; lactam N-11) | 8.46 | < 6.30 |
| CC[C@H](C)[C@@H]1NC(=O)[C@H](CC(C)C)N(C)C(=O)C[C@@H](C(=O)N2CCCCC2)N(C)C(=O)[C@H](C2CCCC2)N(C)C(=O)C2(CCCC2)NC(=O)[C@@H]2CCCN2C(=O)[C@H](CCc2ccc(C(F)(F)F)cn2)NC(=O)CN(C)C(=O)[C@H](CC2CCCCC2)N(C)C(=O)[C@@H]2CCN2C(=O)[C@H](C)N(C)C1=O [Compound 2069] ([NMeL]I[NMeA][Aze][NMeCha][Sar][X18]P[Ac5c][NMeGly(cPent)][NMeD]-Piperidide; lactam N-11 (inferred); C-terminus assumed) | 7.11 | < 6.30 |
| CCO[C@@H]1C[C@H]2C(=O)NC3(CCCC3)C(=O)N(C)[C@@H](C3CCCCC3)C(=O)N(C)[C@H](C(=O)N3CCCC3)CC(=O)N(C)[C@@H](C3CCC3)C(=O)N[C@@H]([C@@H](C)CC)C(=O)N(C)CC(=O)N(C)CC(=O)N(C)[C@@H](CC3CCCCC3)C(=O)N(C)CC(=O)N[C@@H](CCc3ccc(C(F)(F)F)c(Cl)c3)C(=O)N2C1 [Compound 1204] ([NMeGly(cBu)]I[Sar][Sar][NMeCha][Sar][hPhe(3-Cl-4-CF3)][Hyp](Et)[Ac5c][NMeChg][NMeD]-Pyrrolidide; lactam N-11) | 9.36 | ≥ 7.70 |
| CC[C@H](C)[C@@H]1NC(=O)[C@H](CC(C)C)N(C)C(=O)C[C@@H](C(=O)N2CCCCC2)N(C)C(=O)[C@H](C(C)C)N(C)C(=O)C2(CCCC2)NC(=O)[C@@H]2CCCN2C(=O)[C@H](CCc2ccc(C(F)(F)F)c(Cl)c2)NC(=O)CN(CC)C(=O)[C@H](CC2CCCCC2)N(C)C(=O)[C@@H]2CCN2C(=O)[C@H](C)N(C)C1=O [Compound 1276] ([NMeL]I[NMeA][Aze][NMeCha][NEtG][hPhe(3-Cl-4-CF3)]P[Ac5c][NMeV][NMeD]-Piperidide; lactam N-11) | 7.77 | < 6.30 |
| CC[C@H](C)[C@@H]1NC(=O)[C@H](C)N(C)C(=O)C[C@@H](C)NC(=O)[C@H](C2CCCC2)N(C)C(=O)C2(CCCC2)NC(=O)[C@@H]2CCCN2C(=O)[C@H](CCc2ccc(C(F)(F)F)c(Cl)c2)NC(=O)CN(C)C(=O)[C@H](Cc2cccc(C)c2)N(C)C(=O)[C@@H]2CCCN2C(=O)CN(C)C1=O [Compound 1083] (cyclo([Ac5c][NMeGly(cPent)][d(β3hA)][NMeA]I[Sar]P[NMePhe(3-Me)][Sar][hPhe(3-Cl-4-CF3)]P)) | 7.72 | < 6.30 |
| CC[C@H](C)[C@@H]1NC(=O)[C@H](CC(C)C)N(C)C(=O)C[C@@H](C)N(C)C(=O)[C@H](CC(C)C)NC(=O)C(C)(C)N(C)C(=O)[C@H](CC(C)C)NC(=O)[C@H](CCc2ccc(C(F)(F)F)cc2)NC(=O)CN(C)C(=O)[C@H](CC2CCCCC2)N(C)C(=O)CN(C)C(=O)CN(C)C1=O [Compound 262] (cyclo(I[Sar][Sar][NMeCha][Sar][hPhe(4-CF3)]L[NMeAib]L[NMedβ3hAla][NMeL])) | 7.37 | < 6.30 |
